In the METLIN SMRT retention time set (Domingo-Almenara et al. 2019) one finds RP-LC retention time data, which are given here for 32 molecules.

The nature of the data set: gradient 5% acetonitrile 3 min, to 50% in 2 min, to 85% in 15 min, held 3 min, 100 µL/min. The following applies: column: Zorbax Extend-C18 2.1 x 50 mm; eluents: water / acetonitrile, 0.1% formic acid. In outline: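 In both positive and negative ionization mode, a quadrupole time-of-flight mass spectrometer coupled to HPLC analyzed pure standards run in mixtures of ~100 molecules. The Zorbax Extend-C18 column (2.1 × 50 mm, 1.8 μm) was operated at 100 μL/min with water and acetonitrile, each containing 0.1% formic acid. The dead volume was 40 μL and the dwell volume 900 μL. Retention time came from adduct peaks that were computationally picked and individually inspected by hand.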
On to `COc1ccccc1CNC(=O)C1CCc2nc(N3CCOCC3)ncc2C1` (configuration not stated), for which the RP-LC retention time was 719 s. `Cc1sc(NC(=O)c2ccccc2F)nc1-c1ccc2c(c1)NC(=O)C(C)O2` (configuration not stated): the RP-LC retention time came out at 899 s. The value for `Cc1sc(-c2noc(C(C)C)n2)cc1S(=O)(=O)N1CCC(C(=O)N2CCC(C)CC2)CC1` was 1150 s; that for `COc1ccc(C(=O)N2CCc3ccc(C(=O)NCc4cccs4)cc32)cc1` was 806 s. Under `O=C(Cn1nc(N2CCOCC2)c2ccccc2c1=O)Nc1ccc(Br)cc1F` stands 894 s. `COc1ccccc1C(CNC(=O)c1cc(=O)c2cc(C)cc(C)c2o1)N(C)C` (configuration not stated) gave an RP-LC retention time of 659 s. For the molecule `COc1ccc(-c2cc(C(=O)N3CCN(S(=O)(=O)c4ccc(OC)c(OC)c4)CC3)[nH]n2)cc1`, the RP-LC retention time turned out to be 795 s. The value for `CCN(CC)c1nc2ccsc2c(=O)n1CCC(=O)NCc1ccccc1F` was 823 s; that for `O=S(=O)(c1cc(Cl)ccc1Cl)N1CCc2nc(-c3ccc(F)cc3)ncc2C1` was 1240 s; that for `CCN1C(=O)C2(CCN(C(=O)c3ccc(OC(C)C)cc3)CC2)c2ccccc21` was 1020 s. For `O=c1ccn(-c2ccc(F)c(F)c2)nc1-c1nc(-c2ccccc2F)no1`, the RP-LC retention time stood at 863 s.

Molecule `Cc1ccn2c(Nc3ccc4c(c3)OCCO4)c(-c3ccc(O)cc3)nc2c1` displayed an RP-LC retention time of 719 s.

The molecule `O=C(NCc1cc(F)ccc1F)C1CN(S(=O)(=O)c2cccnc2)CC12CCCCC2` (configuration not stated) came in with an RP-LC retention time of 919 s.

Turning to `Cc1cc(-c2c(C)sc(C)c2S(=O)(=O)Nc2ccc(F)c(Cl)c2)n[nH]1`, the RP-LC retention time came to 1120 s. With `CCOC(=O)c1cnc2nc(C)ccc2c1Nc1ccc(O)cc1`, the RP-LC retention time was determined as 618 s.

Take `CCN(C(=O)c1cc2c(s1)N(C)CCCC2)C(C)C`: the RP-LC retention time was found to be 1020 s.

For the molecule `CC1CC(=O)N(CC(=O)Nc2cccc(Cl)c2)c2ccccc2S1` (configuration not stated), the RP-LC retention time turned out to be 978 s. `CC(C)NC(=O)C1CCCN(c2nc3ncn(CC(=O)Nc4cccc(Cl)c4)c(=O)c3s2)C1` (configuration not stated) returned an RP-LC retention time of 738 s. Under `O=C(Cn1cnc2c(sc3nc(-c4ccccc4)ccc32)c1=O)Nc1ccccc1F` stands 993 s; under `CC(C)C(=O)N1CCc2cc(CNC(=O)c3ccnn3C)ccc21`, 708 s.

In the case of `CN(C)c1ccc(-c2nn3c(CSc4ccccc4)nnc3s2)cc1`, the RP-LC retention time came out at 1080 s. The value for `COc1cccc(CCC(=O)Nc2cnn(-c3ncc(N4CCCCC4)cn3)c2)c1` was 890 s. The value for `COc1ccc(-c2noc(-c3cccn(CC(=O)Nc4ccc5c(c4)OCO5)c3=O)n2)cc1OC` was 741 s. In turn, `O=C(NCc1nc(-c2ccc(NS(=O)(=O)c3ccc(Cl)cc3)cc2)no1)c1cccs1` showed an RP-LC retention time of 909 s. On to `O=C(c1cc(Cl)ccc1F)N1CCN(C(=O)c2nnn3c2COC(c2ccccc2)C3)CC1` (configuration not stated), for which the RP-LC retention time is 909 s.

`O=C(c1nc(-c2ccnc(N3CCOCC3)c2)no1)N1CCN(C2CCCCC2)CC1` displayed an RP-LC retention time of 608 s.

Molecule `COc1ccc(CC(=O)NCc2c(C)nc3sc(C)nn23)c(Cl)c1` came in with an RP-LC retention time of 622 s. Turning to `O=C(NC1CC1)c1ccc(OCC2CCCN(C(=O)c3ccc(F)c(F)c3)C2)cc1` (configuration not stated), the RP-LC retention time was 820 s. The value for `CC1CCN(S(=O)(=O)c2cc(-c3ccc(=O)[nH]n3)cs2)CC1` was 772 s; that for `CCc1ccc2oc(=O)cc(CN3CCN(c4ccccn4)CC3)c2c1` was 669 s; that for `C=CCNC(=O)c1ccc2c(c1)N(C)C(=O)CS2` was 671 s.

Regarding `COc1ccc(Cl)cc1NC(=O)Cn1c(C)ncc(C(=O)NC2CCCC2)c1=O`, the RP-LC retention time was determined as 791 s.
